Measured values: patent publication US20030153081A1, “Viral core protein-cationic lipid-nucleic acid-delivery complexes” (priority 1999, published 2003)

Columns and labels:
[1] = system: COS-7 cells; test: β-galactosidase enzyme assay, transfection of COS-7 cells; type: cell-based, Green Monkey; conditions: COS-7, same pDNA:Mu1:liposome ratio as optimal for ND7
Method: COS cells were seeded at a density of 60-80% confluence in 24 well culture dishes 24 hrs prior to transfection. Immediately prior to transfection, cells were washed in serum-free media Incubating pCMVβ with Mu1 prior to the addition of the cationic liposome DC-Chol/DOPE formed complexes capable of cellular transfection. In each case 1 μg pCMVβ was complexed with 12 μg Mu1 peptide that had been found optimal for ND7 cells. The pCMVβ:Mu1 complexes were then mixed with 3, 4 and 6 μg DC-Chol/DOPE. COS cells were exposed to transfection complexes for 2 hours then maintained at 37° C., 5% CO2 for another 24 hrs before being harvested and processed for β-galactosidase enzyme assay. Numbers represent means±SD, n=3.
COS-7 cells (derived from Green Monkey kidney) were grown in RPMI 1640 media (BRL) supplemented with 10% fetal bovine serum (BRL) and 100 IU/mL penicillin/streptomycin (BRL).
In order to see whether improved transfections could be achieved in other cell types we performed a similar analysis on COS-7 cells. […] The same ratio of pDNA:Mu1:liposome optimal for ND7 cells was best for COS-7, cells. A similar degree of improvement was also seen (3.7 fold) over cationic liposomes alone.

[2] = system: HeLa cells; test: β-galactosidase assay, alternative cationic peptides in HeLa cells; type: cell-based, human; conditions: DC-Chol:DOPE liposome:peptide:DNA 12:0.6:1, 30 min, DNA 1.0 μg/ml
Method: In order to examine the effects of various alternative cationic peptides on transfection activities, a series of liposome:cationic peptide:DNA complexes were prepared and their relative transfection abilities analysed in vitro. The peptides used were poly-lysine hydrochloride (average molecular weight 3970, Sigma), poly arginine hydrochloride (average molecular weight 11800, Sigma) a peptide derived from protein V, pV (p5, sequence shown below), a peptide analogue of Mu1 (V, sequence shown below) and Mu1 peptide itself. The p5 peptide and V peptide were synthesized using the same solid-phase peptide synthesis methodology as was used to prepare Mu1 peptide.
Each peptide was combined with cationic liposome (DC-Chol:DOPE 3:2 m/m) and DNA (pCMVβ) in the liposome:peptide:DNA ratio of 12:0.6:1 (w/w/w) as described in Example 4. The transfection activities were examined using HeLa cells (human epithelial cells). The cells were seeded at an approximate density of 5×10^4 per well in a 24-well culture plate in DMEM supplemented with 10% FCS and grown for 24 h in the presence of 5% CO2 at 37° C. Cells were washed by brief exposure to DMEM and then treated with solutions containing LMD or LD complexes, prediluted with OPTIMEM (Gibco) (final DNA concentration 1.0 μg/ml in all cases), for 30 min. Cells were then washed again and incubated for a further 48 h in DMEM supplemented with 10% FCS prior to harvesting. The level of β-galactosidase enzyme activity was determined with a standard assay kit (chemiluminescent, Roche).

[3] = system: plasmid DNA (pCMVβ); test: gel retardation assay (DNA binding analysis)
Method: One microgram of pCMVβ was incubated with 0 μg (lane 2), 5 μg (lane 3), 10 μg (lane 4), 15 μg (lane 5), 20 μg (lane 6), 25 μg (lane 7) and 30 μg (lane 8) of BSA for 10 minutes at room temperature in 1× HBS. Samples were then analyzed on a 1% agarose gel for altered mobility.
When ratios of 0.5 (w/w) or greater were used, however, migration of both forms of pDNA was severely retarded.
C). The Polyomavirus protein Vp1 was much less efficient at preventing pDNA migration. pCMVβ (1 μg) was incubated with 2 μg (lane 2), 4 μg (lane 3), 6 μg (lane 4), 8 μg (lane 5), 16 μg (lane 6), 32 μg (lane 7) and 0 μg (lane 8) Vp1. Only ratios of 6 or higher (protein: pDNA, w/w) caused significant retardation of supercoiled pDNA (lane 6, lower band). Also, not until a ratio of 32 (w/w) was used was there any effect on relaxed pDNA (lane 7, upper band). In all gels lane 1 corresponds to 1 Kb DNA marker (BRL).
The purified peptides were reconstituted in sterile distilled H2O at 3 mg/mL. Peptide and pDNA were complexed in 20 μL HEPES buffered saline (137 mM NaCl, 5 mM KCl, 0.75 mM Na2HPO4, 19 mM HEPES, pH 7.4) for 20 minutes at room temperature. Peptide: pDNA complexes were subsequently analyzed by agarose gel electrophoresis (1%). Control incubations for general macromolecular pDNA interactions were performed with varying amounts of molecular biology grade purified bovine serum albumin (Sigma).
Varying amounts of purified peptide were incubated at room temperature in HBS for approximately 10 minutes and then analyzed by agarose gel electrophoresis. Without the addition of peptide, supercoiled and relaxed circular plasmid DNA (pDNA) migrated in the expected manner (FIG. 1, lane 8).

[4] = charge ratios worked out from the sequence; type: physicochemical
Source text: Mu1 is a polycationic peptide comprised of 19 amino acids associated with the core complex of Adenovirus (Table 1) ^27, 32. We compared the DNA binding capacity of Mu1 with the mouse polyomavirus major capsid protein Vp1 by interaction with plasmid DNA in a gel retardation assay. Vp1 is a 19 amino acid peptide that contains a nuclear localization signal ^26 and contains fewer positively charged amino acids than Mu1. It was therefore predicted to have a lower DNA binding capacity.
The success of non-viral gene delivery vehicles as viable alternatives to virus vector-based systems is dependent on the development of complexes with higher and longer lasting transfection efficiencies. Since the initial identification of cationic liposomes as vehicles for the transfer of genetic material into cells there has been a large push to develop better cationic liposome formulations ^5, 7. Most attempts at improving cationic liposomes have been based on structural modifications to the molecule itself ^30. Novel formulations have been developed which have improved transfection efficiencies ^30. However, particular cell types behave differently in regards to cationic liposomal transfection. For example, we found the polypeptide Mu1 better at enhancing cationic liposome mediated transfection than Vp1. This was probably due to Mu1's greater charge ratio. While both peptides are approximately the same molecular weight, the overall charge ratio of Mu1 was more than twice that of Vp1 (Table 1). […] While a small shift in pDNA mobility was detected when 0.25 μg Mu1 was complexed to 1 μg pCMVβ, almost all of the plasmid was retained near the loading well following addition of 0.5 μg Mu1 (FIG. 1). A 0.5/1.0 (w/w) ratio of Mu1 to pCMVβ corresponds to a 1000/1 molar ratio. Each molecule of Mu1 contains 12 residues that could potentially carry a positive charge. The theoretical charge ratio of Mu1 to pCMVβ would then be 1.6 (12000 Mu1 cations to 7500 pCMVβ anions).

Q: Which “improvement over cationic liposomes alone” value [1] does the source give for H-MRRAHHRRRRASHRRMRGG-OH [Mu1] here?
A: The value was 3.7 fold.

Q: What about the “transfection activity compared to poly lysine and poly arginine complexes” value [2] of the same substance?
A: The value was “excellent transfection activity”.

Q: What about the “ratio of protein to pDNA giving slight retardation of supercoiled pDNA, relaxed form not altered” value ([3]; 1 μg pCMVβ, 1% agarose gel) of the same substance?
A: The value was 0.25 w/w.

Q: What about the “ratio of protein to pDNA at or above which migration of both forms of pDNA was severely retarded” value ([3]; 1 μg pCMVβ, 1x HBS, 1% agarose gel) of the same substance?
A: The value was ≥ 0.5 w/w.

Q: And the “concentration retarding electrophoretic mobility of plasmid DNA relative to Vp1” value ([3]; Mu1 vs Vp1)?
A: The value was 1/60.

Q: What about the “concentration in solution, pDNA retardation” value ([3]; gel retardation complexes, 20 μL) of the same substance?
A: Its value is 25 ng/mL.

Q: What about the Charge/AA ratio [4] of the same substance?
A: Its Charge/AA ratio is 0.63.

Q: And the “theoretical charge ratio of Mu1 to pCMVβ” value ([4]; 0.5/1.0 (w/w) Mu1 to pCMVβ, 12000 cations to 7500 anions)?
A: The value was 1.6.
